From the supplement of paper PMC4449167
± gives the standard deviation of the averaged measurements.

Test system: WB-F344
Assay: gap junctional intercellular communication (dye spread) relative to vehicle control (fraction of control); higher = more gap junction communication (less inhibition)
Experimental: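 Confluent WB-F344 rat liver epithelial cells were pretreated with vehicle, D609 (PC-PLC inhibitor, 50 µM, 20 min), U0126 (MEK1/2 inhibitor, 20 µM, 30 min) or resveratrol (100 µM, 15 min), then exposed to a GJIC-dysregulating chemical at the listed dose and time. GJIC was measured by scalpel loading-dye transfer with Lucifer Yellow (3 min), and the dye-spread area was quantified in ImageJ as a fraction of the vehicle control (FOC). Individual values come from at least 3 independent experiments.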

[1] = pretreatment: D609+GJIC dysreg.
[2] = pretreatment: U0126+GJIC dysreg.

| Compound | gap junctional intercellular communication [1] | gap junctional intercellular communication (pretreatment: GJIC dysreg.) | gap junctional intercellular communication (pretreatment: RES+GJIC dysreg.) | gap junctional intercellular communication [2] | further results |
| --- | --- | --- | --- | --- | --- |
| Cc1cccc2c1Cc1ccccc1-2 [1-Methylfluoren] (compound abbreviation / co-treatment: 1-MeFlu, exposure (dose, time): 70 µM, 10 min) | 0.84 ± 0.13 | 0.266 ± 0.076 | 1 ± 0.17 | 0.318 ± 0.052 |  |
| Cc1ccc2ccc3cccc4ccc1c2c34 [1-Methylpyrene] (compound abbreviation / co-treatment: 1-MePyr, exposure (dose, time): 70 µM, 10 min) | 0.956 ± 0.048 | 0.397 ± 0.072 | 0.815 ± 0.15 | 0.345 ± 0.094 |  |
| Clc1cc(Cl)c(-c2cc(Cl)c(Cl)cc2Cl)cc1Cl [2,2',4,4',5,5'-Hexachlorobiphenyl] (compound abbreviation / co-treatment: PCB 153, exposure (dose, time): 50 µM, 30 min) | 0.781 ± 0.17 | 0.353 ± 0.093 | 0.857 ± 0.11 | 0.278 ± 0.083 |  |
| Oc1c(Cl)c(Cl)c(Cl)c(Cl)c1Cl [Pentachlorophenol] (compound abbreviation / co-treatment: PCP, exposure (dose, time): 50 µM, 10 min) | 0.335 ± 0.068 | 0.282 ± 0.055 | 0.387 ± 0.14 | 0.336 ± 0.023 |  |
| Cl[C@H]1[C@H](Cl)[C@@H](Cl)[C@@H](Cl)[C@H](Cl)[C@H]1Cl [Lindane] (compound abbreviation / co-treatment: Lindane, exposure (dose, time): 60 µM, 25 min) | 0.335 ± 0.046 | 0.282 ± 0.062 | 0.741 ± 0.048 | 0.695 ± 0.16 |  |
| CCCCCCCCCCCC(=O)OCC(O)CO (configuration not stated) [1-Monolaurin] (compound abbreviation / co-treatment: Lau, exposure (dose, time): 150 µM, 10 min) | 0.245 ± 0.028 | 0.229 ± 0.026 | 0.245 ± 0.034 | 0.234 ± 0.034 |  |
| O=C(O)C(F)(F)C(F)(F)C(F)(F)C(F)(F)C(F)(F)C(F)(F)C(F)(F)F [Perfluorooctanoic acid] (compound abbreviation / co-treatment: PFOA, exposure (dose, time): 80 µM, 10 min) | 0.661 ± 0.15 | 0.24 ± 0.054 | 0.743 ± 0.12 | 0.44 ± 0.12 |  |
| CCCCCCCCCCCCCC(=O)O[C@@H]1[C@@H](C)[C@@]2(O)[C@@H](C=C(CO)C[C@]3(O)C(=O)C(C)=C[C@@H]23)[C@@H]2C(C)(C)[C@]12OC(C)=O [12-O-tetradecanoylphorbol-13-acetate] (compound abbreviation / co-treatment: TPA, exposure (dose, time): 10 nM, 30 min) | 0.309 ± 0.077 | 0.202 ± 0.031 | 1.05 ± 0.13 | 0.967 ± 0.092 |  |
| O=C(OOC(=O)c1ccccc1)c1ccccc1 [Benzoylperoxide] (compound abbreviation / co-treatment: BzOOH, exposure (dose, time): 200 µM, 15 min) | 0.373 ± 0.057 | 0.368 ± 0.085 | 0.313 ± 0.084 | 0.33 ± 0.14 |  |
| Cc1cccc2cc3ccccc3cc12 [1-Methylanthracene] (compound abbreviation / co-treatment: 1-MeA, exposure (dose, time): 70 µM, 10 min) | 0.872 ± 0.094 | 0.278 ± 0.066 | 0.818 ± 0.14 | 0.262 ± 0.067 |  |
| CCc1cccc(CC)c1N(COC)C(=O)CCl [Alachlor] (compound abbreviation / co-treatment: Alachlor, exposure (dose, time): 185 µM, 25 min) | 0.285 ± 0.08 | 0.259 ± 0.072 | 0.789 ± 0.14 | 0.356 ± 0.12 |  |
| Clc1ccc(C(c2ccccc2Cl)C(Cl)(Cl)Cl)cc1 (configuration not stated) [1,1,1-Trichloro-2-(2-chlorophenyl)-2-(4-chlorophenyl)ethane] (compound abbreviation / co-treatment: DDT, exposure (dose, time): 30 µM,  20 min) | 0.832 ± 0.089 | 0.308 ± 0.053 | 0.777 ± 0.025 | 0.337 ± 0.082 |  |
| Cc1c2ccccc2c(C)c2ccccc12 [9,10-Dimethylanthracene] (compound abbreviation / co-treatment: 9,10-DiMeA, exposure (dose, time): 70-100 µM, 10 min) |  |  |  |  | gap junctional intercellular communication (dose note: (70 uM), pretreatment: D609+GJIC dysreg.): 0.888 ± 0.038; gap junctional intercellular communication (dose note: (70 uM), pretreatment: GJIC dysreg.): 0.213 ± 0.06; gap junctional intercellular communication (dose note: (70 uM), pretreatment: RES+GJIC dysreg.): 0.744 ± 0.14; gap junctional intercellular communication (dose note: (70 uM), pretreatment: U0126+GJIC dysreg.): 0.342; gap junctional intercellular communication (dose note: (100 uM), pretreatment: D609+GJIC dysreg.): 0.937 ± 0.033; gap junctional intercellular communication (dose note: (100 uM), pretreatment: GJIC dysreg.): 0.317 ± 0.041; gap junctional intercellular communication (dose note: (100 uM), pretreatment: RES+GJIC dysreg.): 0.871 ± 0.15; gap junctional intercellular communication (dose note: (100 uM), pretreatment: U0126+GJIC dysreg.): 0.356 ± 0.096 |
| O=S(=O)(O)C(F)(F)C(F)(F)C(F)(F)C(F)(F)C(F)(F)C(F)(F)C(F)(F)C(F)(F)F [Perfluorooctanesulfonic acid] (compound abbreviation / co-treatment: PFOSA, exposure (dose, time): 40 µM, 20 min) | 0.287 ± 0.045 | 0.279 ± 0.041 | 0.329 ± 0.097 | 0.289 ± 0.037 |  |
| CC(C)C[C@H](NC(=O)[C@H](CC(C)C)NC(=O)[C@H](Cc1ccccc1)NC(=O)[C@@H](N)CO)C(=O)N[C@@H](CCCN=C(N)N)C(=O)N[C@@H](CC(N)=O)C(=O)O [Thrombin receptor activator peptide-6] (compound abbreviation / co-treatment: TRAP-6, exposure (dose, time): 50 µM, 30 min) | 0.588 ± 0.089 | 0.4 ± 0.058 | 0.967 ± 0.04 | 1.05 ± 0.036 |  |
| Cc1nc2sccn2c(=O)c1CCN1CCC(=C(c2ccccc2)c2ccc(F)cc2)CC1 (compound abbreviation / co-treatment: R59022, exposure (dose, time): 30-50 µM, 10 min) | 0.848 ± 0.081 | 0.344 ± 0.13 | 0.867 ± 0.16 | 0.641 ± 0.11 |  |
| O=C(O)C(F)(F)C(F)(F)C(F)(F)C(F)(F)C(F)(F)C(F)(F)C(F)(F)C(F)(F)C(F)(F)F [Perfluorodecanoic acid] (compound abbreviation / co-treatment: PFDA, exposure (dose, time): 50 µM, 20 min) | 0.46 ± 0.12 | 0.22 ± 0.033 | 0.225 ± 0.023 | 0.239 ± 0.046 |  |
| c1ccc2c(c1)Cc1ccccc1-2 [Fluoren] (compound abbreviation / co-treatment: Flu, exposure (dose, time): 100 µM, 10 min) | 0.884 ± 0.12 | 0.253 ± 0.034 | 0.848 ± 0.12 | 0.309 ± 0.013 |  |
| CC1(C)[C@@H](O)CC[C@]2(C)[C@H]3C(=O)C=C4[C@@H]5C[C@@](C)(C(=O)O)CC[C@]5(C)CC[C@@]4(C)[C@]3(C)CC[C@@H]12 [ß-Glycyrrhetinic acid] (compound abbreviation / co-treatment: BGA, exposure (dose, time): 30-50 µM, 15 min) |  |  |  |  | gap junctional intercellular communication (dose note: (30 uM), pretreatment: D609+GJIC dysreg.): 0.242 ± 0.036; gap junctional intercellular communication (dose note: (30 uM), pretreatment: GJIC dysreg.): 0.353 ± 0.03; gap junctional intercellular communication (dose note: (30 uM), pretreatment: RES+GJIC dysreg.): 0.302 ± 0.023; gap junctional intercellular communication (dose note: (30 uM), pretreatment: U0126+GJIC dysreg.): 0.344 ± 0.053; gap junctional intercellular communication (dose note: (50 uM), pretreatment: D609+GJIC dysreg.): 0.225 ± 0.034; gap junctional intercellular communication (dose note: (50 uM), pretreatment: GJIC dysreg.): 0.242 ± 0.042; gap junctional intercellular communication (dose note: (50 uM), pretreatment: RES+GJIC dysreg.): 0.243 ± 0.038; gap junctional intercellular communication (dose note: (50 uM), pretreatment: U0126+GJIC dysreg.): 0.269 ± 0.028 |
| CC(C)(OOC(C)(C)c1ccccc1)c1ccccc1 [Dicumylperoxide] (compound abbreviation / co-treatment: DiCuOOH, exposure (dose, time): 50 µM, 15 min) | 0.884 ± 0.058 | 0.386 ± 0.088 | 0.829 ± 0.081 | 0.324 ± 0.11 |  |
| c1ccc2c(c1)-c1cccc3cccc-2c13 [Fluoranthene] (compound abbreviation / co-treatment: Fla, exposure (dose, time): 70 µM, 10 min) | 0.718 ± 0.11 | 0.245 ± 0.064 | 0.937 ± 0.23 | 0.285 ± 0.091 |  |
